Measured values reported in patent publication US20060069021A1, “Compositions and methods for intranasal administration of inactive analogs of PTH or inactivated preparations of PTH or PTH analogs” (Nastech Pharmaceutical Company Inc., priority 2004, published 2006).
“Also recorded” adds a separate entry of the source. Read-outs that look alike come from different tables or passages of the source. Ends that are not written are not given here.

Columns and labels:
ovariectomized rat model = conditions: cited from earlier work
ciliary motility = conditions: cited from earlier work
[1] = aqueous solution at physiologic pH; cited from earlier work
aminopeptidases = conditions: cited from earlier work
[2] = anesthetized rats, cited from earlier work
[3] = rats, intraduodenal, with 1% (w/v) saline dispersion of polycarbophil; cited from earlier work
[4] = tested on: Type II collagen production by human chondrocytes; test: Cartilage growth model: human chondrocytes in alginate beads, type II collagen ELISA; format: cell-based
Procedure: A. Approximately 3 million human chondrocyte cells (Cell Applications, Inc., San Diego, Calif.) encapsulated in alginate beads were received in 25 mL total volume of re-differentiated medium. Human chondrocytes in alginate beads produce their phenotypic markers such as aggrecan and type II collagen unlike in monolayer culture where chondrocytes lose their phenotypic characteristics and de-differentiate to fibroblast-like cells. Alginate based cell system was pursued to assess type II collagen expression as result of PTH dosing and therefore indication of any cartilage growth.
B. The cell-containing alginate bead suspension was transferred from cell culture flask to 50 mL conical tubes. A volume of 500 μL (˜62,500 cells per well) suspension was dispensed per well in 24-well plates. Samples were added to each well and final volume was brought to one milliliter with appropriate growth media. Controls included cells treated with re-differentiated media as positive control (Cell Applications, Inc., San Diego, Calif.), cells treated with chondrocyte growth media (Cell Applications, Inc., San Diego, Calif.) and basal media (Cell Applications, Inc., San Diego, Calif.) as negative controls.
C. Plates were swirled gently to allow homogenous mixture of each sample. Plates were placed in 37° C., 5% CO2 incubator. Human chondrocytes were grown for up to 12 days on longer. Appropriate growth media were replaced every second or third day. Alginate beads were prepared for type II collagen extraction on the last day of the experiment and extracted collagen was quantified using Native Type II Collagen Detection Kit (Chondrex Inc., Redmond Wash.). Pictures of cells immediately following the samples application and at several time points during the course of experiment were taken using the Olympus CK40 microscope and Nikon Cool Pix 4500 digital camera.
D. A capture ELISA kit (Native Type II Collagen Detection Kit, Chondrex Inc.) was used to measure native type II collagen. For measuring glycosaminoglycans, the kit used was Blyscan Sulfated Glycosaminoglycan Assay kit (Accurate Chemical & Scientific Corp.).
Next, the alginate-based cell system (cartilage growth model; refer to Example 2) was used to determine whether PTH dosing could stimulate chondrocytes to produce cartilage. […] Type II collagen is a major component of the extracelluar matrix of nasal cartilage and therefore was used as a molecular marker for cartilage growth in this assay.
The cell-containing alginate beads were incubated in the presence of various test solutions for 12 days at 37° C., 5% CO2. After the incubation, the alginate beads were processed using an extraction method in order to quantify the production of type II collagen.

[5] = tested on: human chondrocyte cell monolayer; test: Cell proliferation model: human chondrocyte monolayer, MTT assay; format: cell-based; conditions: MTT at t=0 and after 4 days at 37° C./5% CO2
Procedure: A. Chondrocyte monolayers (Cell Applications, Inc., San Diego, Calif.) derived from normal human cartilage were adhered on to a 24-well plate and shipped following the first doubling. Approximately 16000 cells per well were expected at the time the cells were received. Two plates were treated identically with PTH and appropriate control samples. Controls included cells treated with chondrocyte growth media for positive control (Cell Applications, Inc., San Diego, Calif.) and cells treated with basal media for negative control (Cell Applications, Inc., San Diego, Calif.).
B. After the cells are treated, one of the two plates was analyzed for cell viability (t=0 sample). The second plate was placed at 37° C., 5% CO2 incubator for 4 days, after which the plates were analyzed using the MTT assay.
C. MTT is a cell-permeable tetrazolium salt which is reduced by mitochondrial dehydrogenase activity to an insoluble colored formazan by viable cells with intact mitochondrial function or by nonmitochondrial NAD(P)H dehydrogenase activity from cells capable of generating a respiratory burst. […] We have employed a MTT reagent kit prepared by MatTek Corp for their units as in indicator of cell proliferation.
A human chondrocyte cell monolayer model was employed to examine cell proliferation (refer to Example 2). […]

For “Ser Val Ser Glu Ile Gln Leu Met His Asn Leu Gly Lys His Leu Asn Ser Met Glu Arg Val Glu Trp Leu Arg Lys Lys Leu Gln Asp Val-NH2 (SVSEIQLMHNLGKHLNSMERVEWLRKKLQDV-NH2) [hPTH-(1-31)-NH2]”, the “restoration of bone loss” value (ovariectomized rat model) is given as “fully active”.

In the case of “2-alkyl-4-hydroxyquinolines [pyo compound]”, the “concentration producing ciliostasis / inhibiting ciliary motility” value (ciliary motility) is listed as 50 µg/mL.

For `CCN(CC)/[N+]([O-])=N/O.CCNCC` [diethylamine/NO], the “rate (time) of NO release” value [1] is listed as < 3 min.

In the case of `NCCN(CCN)/[N+]([O-])=N/O` [diethylenetriamine/NO (DETANO), diethylenetriamine/NO], the “rate (time) of NO release” value [1] is listed as “approximately 20 hours”.

For `CC(C)CC(N)B(O)O` (stereo not drawn) [boro-leucine], the “effectiveness in enzyme inhibition relative to bestatin” value (aminopeptidases) is given as “more than 100 times” and the “effectiveness in enzyme inhibition relative to puromycin” value (aminopeptidases) is given as “more than 1,000 times”.

For “human growth hormone: human growth hormone given nasally with or without N-acetyl-L-cysteine”, the “nasal bioavailability of human growth hormone” value ([2]; with N-acetyl-L-cysteine (ACS)) is given as 12.2% and the “nasal bioavailability of human growth hormone” value ([2]; without N-acetyl-L-cysteine) is given as 7.5%.

In the case of “9-desglycinamide, 8-arginine vasopressin”, the “increase of bioavailability compared to aqueous solution without polymer” value [3] is listed as 3-5 fold.

With insulin-like growth factor I [IGF-I] the “type II collagen production” value ([4]; 5 μg IGF-I (positive control)) was “greater than 1.2 pg per culture”.

For calcitonin, the “type II collagen production” value ([4]; 20 μg calcitonin) was “no effect” and the “type II collagen production” value ([4]; 200 μg calcitonin) was “no effect”.

B1: PTH: Parathyroid hormone peptide tested in Example 4; which form (1-84 or 1-34) is not stated (peptide, UniProt P01270 32-115, looked up)
Parathyroid hormone: SVSEIQLMHNLGKHLNSMERVEWLRKKLQDVHNFVALGAPLAPRDAGSQRPRKKEDNVLVESHEKSLGEADKADVNVLTKAKSQ
modifications: Parathyroid hormone
With B1 the “type II collagen production” value ([4]; 20 μg PTH in citrate buffer, 12 days at 37° C., 5% CO2) was “did not induce a substantial production of type II collagen”, the “type II collagen production” value ([4]; 20 μg PTH with permeation enhancers, 12 days) was “did not induce a substantial production of type II collagen” and the “type II collagen production” value ([4]; 200 μg PTH in simple formulation, 12 days) was “significant increase in type II collagen; also recorded: modest amounts of type II collagen production”. For the same molecule, the “type II collagen production” value ([4]; high concentration of PTH (200 μg) with permeation enhancers, 12 days) was “essentially no production of type II collagen; also recorded: did not induce any cartilage growth”, the “chondrocyte proliferation (MTT assay)” value ([5]; PTH in simple formulation (citrate buffer)) was “did not stimulate chondrocyte proliferation” and the “chondrocyte proliferation (MTT assay)” value ([5]; PTH with permeation enhancers of Table 2) was “did not stimulate chondrocyte proliferation”.
